Measured values published in ChEMBL document CHEMBL1146636, “Synthesis and in vitro activity of novel isoxazolyl tetrahydropyridinyl oxazolidinone antibacterial agents” (2003).
Values after ≈ are worked out from the molar mass of the structure shown.

Legend:
Type in all cases: functional
Enterococcus faecium [1] = assay: In vitro antibacterial activity against vancomycin-resistant Enterococcus faecium 2164 (VRE.3)
Staphylococcus aureus [2] = assay: In vitro antibacterial activity against Staphylococcus aureus 77 (S.a.2)
Staphylococcus aureus [3] = assay: In vitro antibacterial activity against methicillin-resistant Staphylococcus aureus 241 (MRSA)
Enterococcus faecium [4] = assay: In vitro antibacterial activity against vancomycin-resistant Enterococcus faecium (VRE.1)
Enterococcus faecalis [5] = assay: In vitro antibacterial activity against Enterococcus faecalis 29212A (E.f.1)
Enterococcus faecalis [6] = assay: In vitro antibacterial activity against Enterococcus faecalis EFS008 (E.f.2)
[7] = system: Staphylococcus epidermidis; assay: In vitro antibacterial activity against Staphylococcus epidermidis Q004 (S.e.1)
Enterococcus faecium [8] = assay: In vitro antibacterial activity against vancomycin-resistant Enterococcus faecium 2006 (VRE.2)
Staphylococcus aureus [9] = assay: In vitro antibacterial activity against Staphylococcus aureus 29213A (S.a.3)
Staphylococcus aureus [10] = assay: In vitro antibacterial activity against Staphylococcus aureus 6538p (S.a.1)
[11] = system: Staphylococcus epidermidis; assay: In vitro antibacterial activity against Staphylococcus epidermidisMR 887E (S. e. MR)

## CC(=O)NC[C@H]1CN(c2ccc(N3CC=C(c4conc4C#N)CC3)c(F)c2)C(=O)O1
Enterococcus faecium [1]
  MIC: 2 µg/mL (≈ 4.7 µM)
Staphylococcus aureus [2]
  MIC: 1 µg/mL (≈ 2.35 µM)
Staphylococcus aureus [3]
  MIC: 1 µg/mL (≈ 2.35 µM)
Enterococcus faecium [4]
  MIC: 2 µg/mL (≈ 4.7 µM)
Enterococcus faecalis [5]
  MIC: 2 µg/mL (≈ 4.7 µM)
Enterococcus faecalis [6]
  MIC: 2 µg/mL (≈ 4.7 µM)
[7]
  MIC: 0.5 µg/mL (≈ 1.18 µM)
Enterococcus faecium [8]
  MIC: 2 µg/mL (≈ 4.7 µM)
Staphylococcus aureus [9]
  MIC: 2 µg/mL (≈ 4.7 µM)
Staphylococcus aureus [10]
  MIC: 1 µg/mL (≈ 2.35 µM)
[11]
  MIC: 4 µg/mL (≈ 9.4 µM)

## CC(=O)NC[C@H]1CN(c2ccc(N3CC=C(c4oncc4C)CC3)c(F)c2)C(=O)O1
Enterococcus faecium [1]
  MIC: 2 µg/mL (≈ 4.83 µM)
Staphylococcus aureus [2]
  MIC: 1 µg/mL (≈ 2.41 µM)
Staphylococcus aureus [3]
  MIC: 2 µg/mL (≈ 4.83 µM)
Enterococcus faecium [4]
  MIC: 2 µg/mL (≈ 4.83 µM)
Enterococcus faecalis [5]
  MIC: 4 µg/mL (≈ 9.65 µM)
Enterococcus faecalis [6]
  MIC: 4 µg/mL (≈ 9.65 µM)
[7]
  MIC: 1 µg/mL (≈ 2.41 µM)
Enterococcus faecium [8]
  MIC: 2 µg/mL (≈ 4.83 µM)
Staphylococcus aureus [9]
  MIC: 4 µg/mL (≈ 9.65 µM)
Staphylococcus aureus [10]
  MIC: 2 µg/mL (≈ 4.83 µM)
[11]
  MIC: 2 µg/mL (≈ 4.83 µM)

## CC(=O)NC[C@H]1CN(c2ccc(N3CC=C(c4oncc4C#N)CC3)c(F)c2)C(=O)O1
Enterococcus faecium [1]
  MIC: 4 µg/mL (≈ 9.4 µM)
Staphylococcus aureus [2]
  MIC: 1 µg/mL (≈ 2.35 µM)
Staphylococcus aureus [3]
  MIC: 2 µg/mL (≈ 4.7 µM)
Enterococcus faecium [4]
  MIC: 4 µg/mL (≈ 9.4 µM)
Enterococcus faecalis [5]
  MIC: 4 µg/mL (≈ 9.4 µM)
Enterococcus faecalis [6]
  MIC: 4 µg/mL (≈ 9.4 µM)
[7]
  MIC: 1 µg/mL (≈ 2.35 µM)
Enterococcus faecium [8]
  MIC: 4 µg/mL (≈ 9.4 µM)
Staphylococcus aureus [9]
  MIC: 4 µg/mL (≈ 9.4 µM)
Staphylococcus aureus [10]
  MIC: 2 µg/mL (≈ 4.7 µM)
[11]
  MIC: 4 µg/mL (≈ 9.4 µM)

## CC(=O)NC[C@H]1CN(c2ccc(N3CC=C(c4conc4Cl)CC3)c(F)c2)C(=O)O1
Enterococcus faecium [1]
  MIC: 8 µg/mL (≈ 18.4 µM)
Staphylococcus aureus [2]
  MIC: 2 µg/mL (≈ 4.6 µM)
Staphylococcus aureus [3]
  MIC: 2 µg/mL (≈ 4.6 µM)
Enterococcus faecium [4]
  MIC: 8 µg/mL (≈ 18.4 µM)
Enterococcus faecalis [5]
  MIC: 8 µg/mL (≈ 18.4 µM)
Enterococcus faecalis [6]
  MIC: 8 µg/mL (≈ 18.4 µM)
[7]
  MIC: 2 µg/mL (≈ 4.6 µM)
Enterococcus faecium [8]
  MIC: 8 µg/mL (≈ 18.4 µM)
Staphylococcus aureus [9]
  MIC: 8 µg/mL (≈ 18.4 µM)
Staphylococcus aureus [10]
  MIC: 2 µg/mL (≈ 4.6 µM)
[11]
  MIC: 8 µg/mL (≈ 18.4 µM)

## CC(=O)NC[C@H]1CN(c2ccc(N3CC=C(c4oncc4C(F)(F)F)CC3)c(F)c2)C(=O)O1
Enterococcus faecium [1]
  MIC: > 64 µg/mL
Staphylococcus aureus [2]
  MIC: > 64 µg/mL
Enterococcus faecium [4]
  MIC: > 64 µg/mL
Enterococcus faecalis [5]
  MIC: > 64 µg/mL
Enterococcus faecalis [6]
  MIC: > 64 µg/mL
[7]
  MIC: > 64 µg/mL
Enterococcus faecium [8]
  MIC: > 64 µg/mL
Staphylococcus aureus [9]
  MIC: > 64 µg/mL
Staphylococcus aureus [10]
  MIC: > 64 µg/mL
[11]
  MIC: > 64 µg/mL

## CC(=O)NC[C@H]1CN(c2ccc(N3CC=C(c4oncc4C(N)=O)CC3)c(F)c2)C(=O)O1
Enterococcus faecium [1]
  MIC: 1 µg/mL (≈ 2.26 µM)
Staphylococcus aureus [2]
  MIC: 0.5 µg/mL (≈ 1.13 µM)
Staphylococcus aureus [3]
  MIC: 0.5 µg/mL (≈ 1.13 µM)
Enterococcus faecium [4]
  MIC: 1 µg/mL (≈ 2.26 µM)
Enterococcus faecalis [5]
  MIC: 1 µg/mL (≈ 2.26 µM)
Enterococcus faecalis [6]
  MIC: 1 µg/mL (≈ 2.26 µM)
[7]
  MIC: 0.5 µg/mL (≈ 1.13 µM)
Enterococcus faecium [8]
  MIC: 1 µg/mL (≈ 2.26 µM)
Staphylococcus aureus [9]
  MIC: 0.5 µg/mL (≈ 1.13 µM)
Staphylococcus aureus [10]
  MIC: 0.5 µg/mL (≈ 1.13 µM)
[11]
  MIC: 1 µg/mL (≈ 2.26 µM)

## CC(=O)NC[C@H]1CN(c2ccc(N3CCOCC3)c(F)c2)C(=O)O1 [LINEZOLID]
Enterococcus faecium [1]
  MIC: 2 µg/mL (≈ 5.93 µM)
Staphylococcus aureus [2]
  MIC: 0.5 µg/mL (≈ 1.48 µM)
Staphylococcus aureus [3]
  MIC: 0.5 µg/mL (≈ 1.48 µM)
Enterococcus faecium [4]
  MIC: 2 µg/mL (≈ 5.93 µM)
[7]
  MIC: 0.5 µg/mL (≈ 1.48 µM)
Enterococcus faecium [8]
  MIC: 2 µg/mL (≈ 5.93 µM)
Staphylococcus aureus [10]
  MIC: 0.5 µg/mL (≈ 1.48 µM)
[11]
  MIC: 1 µg/mL (≈ 2.96 µM)

## CN[C@H](CC(C)C)C(=O)N[C@H]1C(=O)N[C@@H](CC(N)=O)C(=O)N[C@H]2C(=O)N[C@H]3C(=O)N[C@H](C(=O)N[C@H](C(=O)O)c4cc(O)cc(O)c4-c4cc3ccc4O)[C@H](O)c3ccc(c(Cl)c3)Oc3cc2cc(c3O[C@@H]2O[C@H](CO)[C@@H](O)[C@H](O)[C@H]2O[C@H]2C[C@](C)(N)[C@H](O)[C@H](C)O2)Oc2ccc(cc2Cl)[C@H]1O [VANCOMYCIN]
Enterococcus faecium [1]
  MIC: > 64 µg/mL
Enterococcus faecium [4]
  MIC: 64 µg/mL (≈ 44.2 µM)
Enterococcus faecium [8]
  MIC: > 64 µg/mL

## CC(=O)NC[C@H]1CN(c2ccc(N3CC=C(c4oncc4Cl)CC3)c(F)c2)C(=O)O1
Enterococcus faecium [1]
  MIC: 32 µg/mL (≈ 73.6 µM)
Staphylococcus aureus [2]
  MIC: 8 µg/mL (≈ 18.4 µM)
Staphylococcus aureus [3]
  MIC: 4 µg/mL (≈ 9.2 µM)
Enterococcus faecium [4]
  MIC: 32 µg/mL (≈ 73.6 µM)
Enterococcus faecalis [5]
  MIC: 64 µg/mL (≈ 147 µM)
Enterococcus faecalis [6]
  MIC: 64 µg/mL (≈ 147 µM)
[7]
  MIC: 8 µg/mL (≈ 18.4 µM)
Enterococcus faecium [8]
  MIC: 32 µg/mL (≈ 73.6 µM)
Staphylococcus aureus [9]
  MIC: 32 µg/mL (≈ 73.6 µM)
Staphylococcus aureus [10]
  MIC: 8 µg/mL (≈ 18.4 µM)
[11]
  MIC: 16 µg/mL (≈ 36.8 µM)

## CC(=O)NC[C@H]1CN(c2ccc(N3CC=C(c4oncc4C(=O)N(C)C)CC3)c(F)c2)C(=O)O1
Enterococcus faecium [1]
  MIC: 8 µg/mL (≈ 17 µM)
Staphylococcus aureus [2]
  MIC: 8 µg/mL (≈ 17 µM)
Staphylococcus aureus [3]
  MIC: 8 µg/mL (≈ 17 µM)
Enterococcus faecium [4]
  MIC: 8 µg/mL (≈ 17 µM)
Enterococcus faecalis [5]
  MIC: 8 µg/mL (≈ 17 µM)
Enterococcus faecalis [6]
  MIC: 8 µg/mL (≈ 17 µM)
[7]
  MIC: 2 µg/mL (≈ 4.24 µM)
Enterococcus faecium [8]
  MIC: 8 µg/mL (≈ 17 µM)
Staphylococcus aureus [9]
  MIC: 4 µg/mL (≈ 8.48 µM)
Staphylococcus aureus [10]
  MIC: 4 µg/mL (≈ 8.48 µM)
[11]
  MIC: 8 µg/mL (≈ 17 µM)

## CCOC(=O)c1cnoc1C1=CCN(c2ccc(N3C[C@H](CNC(C)=O)OC3=O)cc2F)CC1
Enterococcus faecium [1]
  MIC: 8 µg/mL (≈ 16.9 µM)
Staphylococcus aureus [2]
  MIC: 4 µg/mL (≈ 8.47 µM)
Staphylococcus aureus [3]
  MIC: 4 µg/mL (≈ 8.47 µM)
Enterococcus faecium [4]
  MIC: 16 µg/mL (≈ 33.9 µM)
Enterococcus faecalis [5]
  MIC: 16 µg/mL (≈ 33.9 µM)
Enterococcus faecalis [6]
  MIC: 8 µg/mL (≈ 16.9 µM)
[7]
  MIC: 4 µg/mL (≈ 8.47 µM)
Enterococcus faecium [8]
  MIC: 8 µg/mL (≈ 16.9 µM)
Staphylococcus aureus [9]
  MIC: 4 µg/mL (≈ 8.47 µM)
Staphylococcus aureus [10]
  MIC: 8 µg/mL (≈ 16.9 µM)
[11]
  MIC: 16 µg/mL (≈ 33.9 µM)
